The record followed here is patent US10082499B2, “Short term isotope pulse labeling method for analysing metabolic products in biological samples” (Max-Delbrueck-Centrum fuer Molekulare Medizin, priority 2014, dated 2018).

The assay deals with T98G cells. The assay can be described thus: pSIRM analysis of glycolytic inhibition (13C-glucose pulse labeling, GC-MS). The format is cell-based. The procedure: GC-MS measurement: Metabolite analysis was performed on a gas chromatography coupled to time of flight mass spectrometer (LECO-Pegasus III— TOF-MS-System, LECO), supplemented with an auto-sampler (MultiPurpose Sampler 2 XL, Gerstel). Samples and quantification standards were injected in split mode (split 1:5, injection volume: 1 ul,) in a temperature-controlled injector (CAS4, Gerstel) with a baffled glass-liner (Gerstel). The following temperature program was applied during sample injection: Initial temperature of 80° C. for 30 s followed by a ramp with 12° C./min to 120° C. and a second ramp with 7° C./min to 300° C. and final hold for 2 min. Gas chromatographic separation was performed on an Agilent 6890N (Agilent), equipped with a Varian VF-5 ms-column of 30 m length, 250 μm inner diameter and 0.25 μm film thickness (Varian). Helium was used as carrier gas with a flow rate of 1.2 mL/min. Gas chromatography was performed with the following temperature gradient: 2 min heating at 70° C., first temperature gradient with 5° C./min up to 120° C. and hold for 30 s, subsequently a second temperature increase of 7° C./min up to 350° C. with a hold time of 2 min. Spectra were recorded in a mass range of 60 to 600 u with 20 spectra/s at a detector voltage of 1750 V.
Data analysis: The vendor software ChromaTOF Version 4.42 (LECO Corp. St. Joseph—USA) was used for metabolite evaluation with the following parameter: baseline offset of 1, peak width of 4 s, signal/noise of 20, peak smoothing of 11 data-points. Retention indices were calculated based on retention index standards as described (Ref). GoIm Metabolome Database (GMD) provided peak identification. The quantification routine of ChromaTOF was used for external calibration based on the measured quantification standards. Exported csv-files included: Name, quant mass, retention index, 1st dimension retention time, 2nd dimension retention time, area, concentration, match, reverse, quant signal/noise, type, concentration units and the peak true spectrum in absolute values. For further data analysis the tool MetMax was developed in cooperation with the MPIMP in Potsdam-Golm (http://gmd.mpimp-golm.mpg.de/apps/metmax). MetMax provided of extraction of peak areas and quantities (retention analysis mode), and intensities of pre-defined mass ranges (isotope concentrator mode) from the exported csv-files. The in-house developed pSIRM-wizard enabled the determination of ^13C-label incorporation based on the exported data following the descriptions and equations stated in the paper.
Cell harvest: Growth media was removed from cells and cells were incubated in 5 ml of prewarmed (37° C.) wash-buffer (137 mM NaCl, 3 mM KCl, 5 mM HEPES, adjusted to a pH of 7.2-7.4) enriched with the same amount of glucose and glutamine as in the growth media (2.5 g/L and 4 mM respectively). For the metabolic labeling the wash-buffer is used as labeling buffer with glucose or glutamine replaced by their ^13C-counterpart. Cells were incubated for 3 minutes at 37° C. before harvest. The buffer was removed followed by an immediate addition of 5 ml of prechilled (−20 to −40° C.) 50% MeOH (with 2-4 μg/mL Cinnamic acid as internal standard) to the plate. Cells were scratched of the plates using cell-scraper and transferred to a falcon, which contain 1 ml of chloroform. Cell suspension was frozen in liquid nitrogen and stored at −80° C. until extraction. To extract cell metabolism the suspension was shaken for 30 minutes at 4° C., followed by a centrifugation for 10 minutes to perform phase separation. 4.5 ml of the upper, polar phase were transferred into a new falcon and dried under vacuum. On the next day the pellet was resuspended in 530 μl 20% Methanol (4° C.), shaken at 4° C. until completely solved, transferred into two eppies (2×250 μl) and dried under vacuum. The dried samples were stored at −20° C. and derivatized as described above. […]

Setting [1] is: 2 mM inhibitor 12 min + 3 min 13C-glucose.
Where [2] appears, read: 2 mM inhibitor 12 min, then 3 min 13C-glucose in presence of inhibitor.

“Also recorded” adds a separate entry of the source.

As to `O=CC[C@@H](O)[C@H](O)[C@H](O)CO` [2DG, 2-deoxyglucose], under setting [1], the “13C-glucose incorporation (carbon flow) into citrate” value is given as “extended; also recorded: increasing”; the “inhibitory effect on glycolysis” value is “negligible”; the “isotope incorporation in pyruvate and lactate / pyruvate or lactate levels” value is listed as “affected only marginally; also recorded: did not affect”. Also, the “reduction of the 13C-fraction of hexose-phosphates” value under setting [2] was found to be 20%. Moreover, where the note is “10 mM inhibitor”, the “inhibitory effect on glycolysis” value is “stronger inhibition”, the “isotope incorporation rates in G6P” value is recorded as “not affected” and the “reduction of glycolytic flow” value is given as “up to 80%”.

Consider `O=C(O)C(=O)CBr` [BrPyr], for which the “carbon flow downstream of GAPDH” value (2 mM inhibitor) is recorded as “strong decline”. In addition, under setting [1], the “concentration of 3PGA” value is recorded as “diminished below the detection limit”; the “inhibitory effect on glycolysis” value is “nearly completely inhibited”; the “labelled fraction of G6P and F6P” value was “reduced”; the “total concentration of G6P and F6P (hexose phosphates)” value is “increased”. Also, under setting [2], the “reduction of carbon-flow into pyruvate, lactate and citrate” value was “around 100%”.
